Reference: publication PMC5362409, “Antivascular and antitumor properties of the tubulin-binding chalcone TUB091” (Oncotarget, 2016)

Molecular target: T1, αβ-tubulin (β-tubulin, colchicine site) (Bos taurus, UniProt P81947+Q6B856)
T1 construct: gene TUBB2B; calf brain tubulin; with α-tubulin
Assay: fluorescence competition: displacement of TUB091 fluorescence by TUB092, giving Ka ([…] GTP)
Assay type: binding
Settings: read-out: fluorescence competition: displacement of TUB091 fluorescence by TUB092, giving

`COc1ccc(/C=C(\C)C(=O)c2cc(OC)c3c(c2)OCO3)cc1N` [compound 11, (E)-3-(3’’-amino-4’’-methoxyphenyl)-1-(5’-methoxy-3’,4’-methylendioxyphenyl)-2-methylprop-2-en-1-one] showed a Kd of 90.9 nM.
